The record followed here is patent US12492194B2, “HPK1 inhibitors” (Janssen Pharmaceutica NV, priority 2019, dated 2025).

The target of experiment [1] is T1, full-length human Hpk1 (Homo sapiens, UniProt Q92918).
T1 construct: A recombinant fusion protein consisting of full-length human Hpk1; GST (N)
The experiment can be described thus: HPK1 kinase assay (ADP Glo Kinase Assay). The following applies: full-length human GST-Hpk1, ADP Glo, 75 μM ATP; read-out: Hpk1 biochemical (pIC50) (converted). It counts as biochemical. In a few lines:
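GST-tagged full-length human Hpk1 from baculovirus/insect cells, preincubated with compound 30-45 min at room temperature in 40 mM Tris pH 7.5, 2 mM DTT, 0.05% BSA, 5 mM MgCl2. Reaction started with buffer containing 75 μM ATP (stock, before addition) and run 120 min. ADP formed read by ADP Glo luminescence.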
On the technique in general: In ADP-Glo the light output rises with the ADP produced.

Experiment [2] deals with Hpk1 (Homo sapiens, UniProt Q92918). The experiment can be described thus: SLP76 phosphorylation assay (SLP76 pS376 in lysates of HEK293 cells engineered to express Hpk1 and SLP76). It counts as cell-based. The following applies: HEK293 cells expressing Hpk1 and SLP76, 4 hours incubation; read-out: pSLP76 (HEK293) (pIC50) (converted). In a few lines:
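HEK293 cells expressing Hpk1 and SLP76 were treated with serially diluted compounds for 4 h at 37 °C/5% CO2, then lysed. SLP76 pS376 in lysates was quantified by electrochemiluminescent immunoassay. IC50 was fitted after subtracting signal from cells expressing SLP76 only.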

Bounds are passed on as bounds.

T1 sequence (Q92918 whole entry, the tested form may be a part): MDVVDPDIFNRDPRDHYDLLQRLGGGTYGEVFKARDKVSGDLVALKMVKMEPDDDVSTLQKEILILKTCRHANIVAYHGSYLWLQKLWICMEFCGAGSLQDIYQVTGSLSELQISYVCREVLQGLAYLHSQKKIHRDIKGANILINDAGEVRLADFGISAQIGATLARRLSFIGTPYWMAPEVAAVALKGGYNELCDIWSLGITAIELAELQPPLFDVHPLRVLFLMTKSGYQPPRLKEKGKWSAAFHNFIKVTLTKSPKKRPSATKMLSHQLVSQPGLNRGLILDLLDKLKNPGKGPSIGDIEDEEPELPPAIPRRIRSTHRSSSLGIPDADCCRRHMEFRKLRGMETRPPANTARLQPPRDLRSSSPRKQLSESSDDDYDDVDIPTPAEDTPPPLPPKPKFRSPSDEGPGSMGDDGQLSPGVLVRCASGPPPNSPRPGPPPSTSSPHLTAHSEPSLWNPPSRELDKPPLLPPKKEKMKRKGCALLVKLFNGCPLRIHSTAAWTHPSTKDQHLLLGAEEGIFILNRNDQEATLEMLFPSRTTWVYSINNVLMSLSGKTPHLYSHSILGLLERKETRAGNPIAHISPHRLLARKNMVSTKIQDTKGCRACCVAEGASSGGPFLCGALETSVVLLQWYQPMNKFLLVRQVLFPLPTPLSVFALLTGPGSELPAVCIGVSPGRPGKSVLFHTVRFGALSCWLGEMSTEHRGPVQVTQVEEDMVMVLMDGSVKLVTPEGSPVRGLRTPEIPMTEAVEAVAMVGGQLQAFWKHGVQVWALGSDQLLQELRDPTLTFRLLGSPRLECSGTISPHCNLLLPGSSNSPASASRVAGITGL
Sequence of Hpk1 (Q92918 whole entry): as the sequence (Q92918 whole entry, the tested form may be a part) above

For the molecule `Nc1ncc(-c2ccc(C3CCS(=O)(=O)CC3)c([C@@H]3CCCN3)c2)cc1-c1ccnc(F)c1` [Co. 100], the IC50 is 19.5 nM in experiment [1] and 1860 nM in experiment [2].
Taken in the same sequence, the figures for `Nc1ncc(-c2ccc(C3CCOCC3)c([C@@H]3CCCN3)c2)cc1C1CCS(=O)(=O)CC1` [Co. 102] were 295 nM and more than 10000 nM.
Taken in the same sequence, the figures for `Nc1ncc(-c2ccc(C3CCOCC3)c([C@@H]3CN4CCCC[C@H]4CN3)c2)cc1Br` [Co. 104] were 58.9 nM and 7940 nM.
Taken in the same sequence, the figures for `Nc1ncc(-c2ccc(C3CCOCC3)c(CNC3COC3)c2)cc1-c1ccnc(F)c1` [Co. 105] were 380 nM and more than 10000 nM.
As for `CN(Cc1cc(-c2cnc(N)c(-c3ccncc3)c2)ccc1C1CCOCC1)C1CC1` [Co. 106], the figures for the IC50 in experiment [1] and in experiment [2] were 178 nM and 7410 nM, respectively.
Taken in the same sequence, the figures for `Nc1ncc(-c2ccc(C3CCOCC3)c(CN3CCCC3)c2)cc1-c1ccncc1` [Co. 108] were 117 nM and 7590 nM.
On to `CN(C)Cc1cc(-c2cnc(N)c(C(=O)NCCO)c2)ccc1C1CCOCC1` [Co. 110], for which the values for the IC50 in experiment [1] and in experiment [2] were 89.1 nM and 4680 nM, respectively.
As to `CC(CO)CNC(=O)c1cc(-c2ccc(C3CCOCC3)c(CN(C)C)c2)cnc1N` (stereo not drawn) [Co. 111], the IC50 in experiment [1] was 110 nM; in experiment [2] it was 5890 nM.
For `Nc1ncc(-c2ccc(C3CCOCC3)c([C@@H]3CCCN3)c2)cc1-c1ccc(=O)[nH]c1` [Compound 56] the same measures were 35.5 nM and more than 10000 nM.
